In patent US8791132B2, “Compounds and methods for treatment of hypertension” (Medivation Technologies, Inc., priority 2011, dated 2014):
Several values for one entry are separate records, joined by “and”; a condition that tells them apart may be missing. Identical values can stand only once. Like-named read-outs stand apart in the source and are kept apart here.

Tests used:
[1] = biological target: T1, rat adrenergic α1B receptor (Rattus norvegicus, UniProt P15823); assay: Radioligand binding, adrenergic α1B ([3H]Prazosin); details: [3H]Prazosin; for Percentage inhibition of ligand binding, Adrenergic α1B / Percentage inhibition of ligand binding, Adrenergic α1B (0.1 μM): compound at 0.1 μM, 0.1 µM; for Percentage inhibition of ligand binding, Adrenergic α1B: repeat assays, each datapoint shown; for inhibition at 0.1 µM: read-out: Percentage inhibition of ligand binding, Adrenergic α1B (0.1 μM), compound at 0.1 μM; for inhibition at 0.1 µM / Percentage inhibition of ligand binding, Adrenergic α1B (0.1 μM): repeat datapoints each shown
T1 construct: rat adrenergic α1B receptor obtained from Wistar Rat liver; from tissue; host or cells: Wistar rat liver
T1 sequence (P15823 1-515): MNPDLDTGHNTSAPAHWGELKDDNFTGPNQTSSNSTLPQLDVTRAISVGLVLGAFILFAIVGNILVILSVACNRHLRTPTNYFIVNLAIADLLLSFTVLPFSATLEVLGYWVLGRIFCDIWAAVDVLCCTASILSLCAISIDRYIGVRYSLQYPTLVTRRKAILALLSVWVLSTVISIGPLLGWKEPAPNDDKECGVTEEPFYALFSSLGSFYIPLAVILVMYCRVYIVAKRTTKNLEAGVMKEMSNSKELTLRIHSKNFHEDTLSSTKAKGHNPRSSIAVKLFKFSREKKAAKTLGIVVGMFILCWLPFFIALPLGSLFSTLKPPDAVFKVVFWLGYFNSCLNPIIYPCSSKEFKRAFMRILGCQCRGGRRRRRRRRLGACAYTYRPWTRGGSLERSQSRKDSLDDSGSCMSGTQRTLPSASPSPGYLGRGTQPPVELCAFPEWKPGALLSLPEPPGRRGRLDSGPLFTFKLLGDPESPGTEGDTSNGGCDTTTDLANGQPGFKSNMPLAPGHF
Summary of the method: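 Filter binding with Wistar rat liver α1B preparation: test compound plus 0.25 nM [3H]prazosin, 1 h at 25° C in modified Tris-HCl buffer pH 7.4.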

[2] = biological target: T2, human recombinant adrenergic α2A receptor (Homo sapiens, UniProt P08913); assay: Radioligand binding, adrenergic α2A ([3H]MK-912); details: [3H]MK-912; for Percentage inhibition of ligand binding, Adrenergic α2A / Percentage inhibition of ligand binding, Adrenergic α2A (0.1 μM): compound at 0.1 μM, 0.1 µM; for Percentage inhibition of ligand binding, Adrenergic α2A: repeat assays, each datapoint shown; for inhibition at 0.1 µM: read-out: Percentage inhibition of ligand binding, Adrenergic α2A (0.1 μM), compound at 0.1 μM; for inhibition at 0.1 µM / Percentage inhibition of ligand binding, Adrenergic α2A (0.1 μM): repeat datapoints each shown
T2 construct: expressed in transfected cells; host or cells: insect Sf9 cells
T2 sequence (P08913 1-465): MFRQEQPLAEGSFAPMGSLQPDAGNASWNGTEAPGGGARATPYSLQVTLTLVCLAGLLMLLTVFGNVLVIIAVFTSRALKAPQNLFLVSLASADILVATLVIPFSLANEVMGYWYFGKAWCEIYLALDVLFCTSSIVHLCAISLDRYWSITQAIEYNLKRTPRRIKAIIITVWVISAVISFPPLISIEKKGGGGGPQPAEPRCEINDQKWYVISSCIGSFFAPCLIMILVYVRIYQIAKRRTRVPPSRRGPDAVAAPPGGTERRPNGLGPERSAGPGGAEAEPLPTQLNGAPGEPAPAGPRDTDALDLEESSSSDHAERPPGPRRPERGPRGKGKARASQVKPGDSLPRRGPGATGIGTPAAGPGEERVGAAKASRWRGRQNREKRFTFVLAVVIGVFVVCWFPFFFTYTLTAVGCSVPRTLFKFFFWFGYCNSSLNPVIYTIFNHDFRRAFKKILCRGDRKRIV
Summary of the method: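 In 50 mM Tris-HCl (pH 7.4) containing 12.5 mM MgCl2 and 2 mM EDTA, Sf9-expressed receptor was exposed to test compound plus 1 nM [3H]MK-912 at 25 °C for 60 min. Specific binding, corrected using 10 μM WB-4101, was quantified by filtration and counting and expressed as percent inhibition.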

[3] = biological target: T3, human recombinant adrenergic α2B receptor (Homo sapiens, UniProt P18089); assay: Radioligand binding, adrenergic α2B ([3H]Rauwolscine); details: for Percentage inhibition of ligand binding, Adrenergic α2B / Percentage inhibition of ligand binding, Adrenergic α2B (0.03 μM): 0.03 µM
T3 construct: expressed in transfected cells; host or cells: CHO-K1
T3 sequence (P18089 1-450): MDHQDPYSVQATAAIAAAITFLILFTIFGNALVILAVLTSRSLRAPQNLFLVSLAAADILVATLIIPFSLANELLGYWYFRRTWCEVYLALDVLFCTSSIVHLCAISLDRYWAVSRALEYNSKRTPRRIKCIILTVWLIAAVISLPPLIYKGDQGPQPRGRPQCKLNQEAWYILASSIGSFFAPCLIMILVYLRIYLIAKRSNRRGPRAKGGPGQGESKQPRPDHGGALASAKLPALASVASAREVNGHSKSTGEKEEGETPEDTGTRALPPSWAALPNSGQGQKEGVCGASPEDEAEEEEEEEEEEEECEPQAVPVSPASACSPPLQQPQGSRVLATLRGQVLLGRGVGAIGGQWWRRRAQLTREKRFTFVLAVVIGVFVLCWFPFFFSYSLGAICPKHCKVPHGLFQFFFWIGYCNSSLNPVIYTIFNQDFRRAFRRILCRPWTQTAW
Summary of the method: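 Values are percent inhibition of specific radioligand binding. The receptor, expressed in CHO-K1 cells, was exposed to 2.5 nM [3H]Rauwolscine at 25° C for 60 min, with 10 μM Prazosin marking non-specific binding.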

[4] = compound at 0.03 μM, [3H]Rauwolscine, repeat assays, each datapoint shown
[5] = read-out: Percentage inhibition of ligand binding, Adrenergic α2B (0.03 μM), compound at 0.03 μM, [3H]Rauwolscine, repeat datapoints each shown
[6] = compound at 0.03 μM, [3H]Rauwolscine, repeat datapoints each shown

Percentage inhibition of ligand binding, Adrenergic α1B [1] | Percentage inhibition of ligand binding, Adrenergic α2A [2] | Percentage inhibition of ligand binding, Adrenergic α2B [3, 4] | Percentage inhibition of ligand binding, Adrenergic α1B (0.1 μM) [1] | Percentage inhibition of ligand binding, Adrenergic α2A (0.1 μM) [2] | Percentage inhibition of ligand binding, Adrenergic α2B (0.03 μM) [3, 6] | Compound | also measured
12% | 11% | 33% | – | – | – | COc1cccc2c3c(n(CC(O)c4ccncc4)c12)CCN(C)C3 (single isomer, unassigned) [44a, 2-(6-methoxy-2-methyl-3,4-dihydro-1H-pyrido[4,3-b]indol-5(2H)-yl)-1-(pyridin-4-yl)ethanol] | –
– | – | – | – | – | – | Cc1ccc2c(c1)c1c(n2CC(C)(O)c2ccc[nH]c2=O)CCN(C)C1 (centres unmarked) [II-143, 3-(1-(1,2,3,4-tetrahydro-2,8-dimethylpyrido[4,3-b]indol-5-yl)-2-hydroxypropan-2-yl)pyridin-2(1H)-one] | inhibition at 0.1 µM [1]: 13%; inhibition at 0.1 µM [2]: -3%; inhibition at 0.03 µM [3, 5]: 22%
– | – | – | 17% | 8% | 42% | Cc1ccc2c(c1)c1c(n2CC(C)(O)c2cccnc2)CC(C)N(C)C1 (single isomer, unassigned) [II-146c, 2-(pyridin-3-yl)-1-(2,3,8-trimethyl-3,4-dihydro-1H-pyrido[4,3-b]indol-5(2H)-yl)propan-2-ol] | –
– | – | – | 13% | −2% | 27% | Cc1cnc2c(c1)c1c(n2CC(C)(O)c2ccc(C(F)(F)F)nc2)CCN(C)C1 (single isomer, unassigned) [II-108a] | –
81% | 6% | 65% | – | – | – | CN1CCc2c(n(CC(O)c3ccncc3)c3ccc(Cl)cc23)CC1 (single isomer, unassigned) [15a, 2-(9-chloro-3-methyl-2,3,4,5-tetrahydroazepino[4,5-b]indol-6(1H)-yl)-1-(pyridin-4-yl)ethanol] | –
– | – | – | – | – | – | Cc1ccc2c(c1)c1c(n2CC(O)c2cnn(C)c2)CCN(C)C1 (centres unmarked) [131a, 2-(1,2,3,4-tetrahydro-2,8-dimethylpyrido[4,3-b]indol-5-yl)-1-(1-methyl-1H-pyrazol-4-yl)ethanol] | inhibition at 0.1 µM [1]: 24%; inhibition at 0.1 µM [2]: 10%; inhibition at 0.03 µM [3, 5]: 30%
4% | 1% | −3% | – | – | – | CN1CCc2c(c3cc(C(C)(C)O)ccc3n2CC(O)c2ccncc2)C1 (single isomer, unassigned) [23b, 2-(2,3,4,5-tetrahydro-5-(2-hydroxy-2-(pyridin-4-yl)ethyl)-2-methyl-1H-pyrido[4,3-b]indol-8-yl)propan-2-ol] | –
−2% | 0% | 6% and 11% | – | – | – | Cc1cnc2c(c1)c1c(n2CC(C)(O)c2cccnc2)CCN2CCCC12 (single isomer, unassigned) [26d] | –
– | – | – | 23% | −5% | 52% | Cc1cnc2c(c1)c1c(n2CC(C)(O)c2ccc(C)nc2)CCN2CCCC12 (single isomer, unassigned) [148a] | –
28% | 14% | – | – | – | – | Cc1cnc2c(c1)c1c(n2CCc2ccc(C)nc2)CCN2CCCC12 (single isomer, unassigned) [74b, 10-methyl-7-(2-(6-methylpyridin-3-yl)ethyl)-2,3,5,6,7,11c-hexahydro-1H-pyrido[3′,2′:4,5]pyrrolo[2,3-g]indolizine] | inhibition at 0.03 µM ([3]; compound at 0.03 μM, [3H]Rauwolscine, repeat assays, each datapoint shown, read-out: Percentage inhibition of ligand binding, Adrenergic α2B): 27%
– | – | – | 11% | – | 69% and 73% | CC(O)(Cn1c2c(c3cc(Cl)ccc31)CNCC2)c1cccnc1 (single isomer, unassigned) [175a] | inhibition at 0.1 µM [2]: 11%; Ki ([3]; read-out: Ki α2B): 4.42 nM; inhibition at 0.1 µM ([3]; read-out: Percentage inhibition of ligand binding, Adrenergic α2B (0.1 μM), compound at 0.1 μM, [3H]Rauwolscine, repeat datapoints each shown): 90%
– | – | – | – | – | – | CN1CCc2c(c3ccncc3n2CC(O)c2ccncc2)C1 (centres unmarked) [II-242] | inhibition at 0.1 µM [1]: 4%; inhibition at 0.1 µM [2]: 2%; inhibition at 0.03 µM [3, 5]: 3%
– | – | – | 54% | 8% | 79% | Cc1cnc2c(c1)c1c(n2CC(O)c2ccncc2)CCN2CCCC12 (single isomer, unassigned) [IV-209d, 2-(9-Methyl-1,2,3,4,5,10c-hexahydro-3a,6,7-triaza-cyclopenta[c]fluoren-6-yl)-1-pyridin-4-yl-ethanol] | –
62% | 9% | 27% | – | – | – | Cc1ccc2c(c1)c1c(n2CC(C)(O)c2ccncc2)CN(C)CC1 (single isomer, unassigned) [19b, 1-(2,6-dimethyl-1,2,3,4-tetrahydro-β-carbolin-9-yl)-2-pyridin-4-yl-propan-2-ol] | –
– | – | – | 68% | – | – | Cc1ccc2c(c1)c1c(n2CC(N=[N+]=[N-])c2ccc(F)cc2F)CCN(C)CC1 (single isomer, unassigned) [V-21a, 6-(2-azido-2-(2,4-difluorophenyl)ethyl)-3,9-dimethyl-1,2,3,4,5,6-hexahydroazepino[4,5-b]indole] | inhibition at 0.1 µM [2]: 62%; inhibition at 0.03 µM [3, 5]: 98%
– | – | – | 11% | 6% | 59% | Cc1ccc2c(c1)c1c(n2CC(O)c2ccc(C(N)=O)cc2)CCN(C)C1 (single isomer, unassigned) [139b, 4-[2-(2,8-dimethyl-1,2,3,4-tetrahydro-pyrido[4,3-b]indol-5-yl)-1-hydroxy-ethyl]-benzamide] | –
71% | 18% | 34% | – | – | – | Cc1ccc2c(c1)c1c(n2CC(O)c2ccncc2)CC2CCCN2C1 (single isomer, unassigned) [76b] | –
– | – | – | 45% | 12% | – | Cc1cnc2c(c1)c1c(n2CC(O)c2ccc(C#N)nc2)CCN(C)C1 (single isomer, unassigned) [II-114a, 5-[2-(3,6-dimethyl-5,6,7,8-tetrahydro-1,6,9-triaza-fluoren-9-yl)-1-hydroxy-ethyl]-pyridine-2-carbonitrile] | inhibition at 0.03 µM [3, 5]: 40%
